This experiment has as its system nitrification in soil (microbial biomass). Briefly: Incubation experiment: measurement of the nitrification-inhibiting effect in soil (NH4—N recovery). The following applies: overall summary of the experiments. The protocol:
In all treatments the same nitrogen as well as the same AI (active ingredient) amounts were applied. In case of the two tested nitrification inhibitors DMPP and DMPSA it was 1% NI (nitrification inhibitor) related to the sum of NH2—N and NH4—N of the corresponding carrier fertilizer. In case of physical mixtures, in which only one part of the fertilizers was treated with a NI, the concentrations of the corresponding AI were higher so that the overall amounts of NI were the same as in the control treatment.
100 g soil (incubated at 20° C. for two weeks to activate the microbial biomass) is filled into 500 ml plastic bottles (e.g. soil sampled from the field) and is moistened to 50% water holding capacity. The fertilizers are treated with the respective products containing the compositions and mixtures of the invention in the appropriate concentration.
Granules of the treated fertilizers are evenly distributed to the soil. The amount of fertilizer which is applied corresponds to 10 mg of reduced nitrogen per bottle.
The bottles are capped loosely to allow air exchange. The bottles are then incubated at 20° C. for 28 days.
For analysis, 300 mL of a 1% K2SO4-solution is added to the bottle containing the soil and shaken for 2 hours in a horizontal shaker at 150 rpm. […] The ammonium contents of the filtrates are analyzed with an autoanalyzer at 550 nm (Merck, AA11).

Experimental findings from patent US20230063109A1, “MIXTURES COMPRISING NITRIFICATION INHIBITORS AND CARRIERS” (BASF SE, priority 2020, published 2023) are described below.

Turning to “2-(3,4-dimethyl-1H-pyrazol-1-yl)succinic acid and/or 2-(4,5-dimethyl-1H-pyrazol-1-yl)succinic acid [DMPSA]”, the “inhibition of nitrification (in words)” value is “sufficiently be inhibited”.
For “3,4-dimethyl pyrazole phosphate and/or 4,5-dimethyl pyrazole phosphate [DMPP]” the value was “sufficiently be inhibited”.
